Assays:
[1] = Doxorubicin precipitation by Inner Buffer anions (Example 9); type: physicochemical; details: for Doxorubicin precipitation: 1 mg/ml, 22° C., 3 hours
Protocol: Doxorubicin hydrochloride was added to the aliquots of Inner Buffers described in the Example 8 above to achieve final concentration of 1 mg/ml. The mixtures were briefly incubated at 60° C. to effect maximum drug dissolution, and further equilibrated at ambient temperature (22° C.) with gentle shaking for 3 hours. Precipitated doxorubicin was separated by centrifugation of an Eppendorf centrifuge (10,000 rpm, 5 min.), and the amount of doxorubicin in supernatant fluid was determined by spectrophotometry. The percent of drug precipitation was calculated as 100% less the percent of doxorubicin remaining in the supernatant fluid relative to the total added doxorubicin.

[2] = liposomes loaded by the ammonium ion method (Haran, et al., 1993); cited from earlier work
[3] = Doxorubicin loading into liposomes with entrapped anions essentially free from transmembrane pH or ammonium ion gradients (Example 8); type: physicochemical; details: 36° C., 12 hours
Protocol: Aqueous solutions containing ammonium salts of hydrochloric, nitric, methanesulfonic, L(+)-tartaric, citric, sulfuric, phosphoric, diethylenetriamine pentaacetic (DTPA), or polyacrylic (Mol. weight. 2,000) acids were prepared by titration of the respective acids in water with the standard aqueous solution of ammonium hydroxide to achieve pH 7.3±0.05,followed by volume adjustment to achieve 0.2 equivalent/L of ammonium ion, and, if necessary, by addition of dry sucrose to achieve osmolarity of 377 mmol/kg. (These solutions are hereinafter referred to as Inner Buffers). All solutions additionally contained 10 mM hydroxyethylpiperazinoethane sulfonic acid (HEPES) to stabilize the pH at titration endpoint. To afford determination of intraliposomal pH, a fluorescence indicator 8-hydroxypyrene trisulfonate was added to the solutions to the final concentration of 0.2 mM. Liposomes containing entrapped ammonium salt solutions as above were prepared from egg phosphatidyl choline, cholesterol, and PEG-DSPE as described in the Example 7, except that lipid hydration and extrusion were carried out at room temperature. The bulk aqueous phases of liposome preparations were exchanged by gel-filtration for an aqueous solution (Outer buffer) containing 0.2 M ammonium chloride, 10 mM HEPES, pH 7.3, osmolarity 377 mmol/kg, to obtain liposome preparations substantially without transmembrane ammonium-ion gradients. Loading of doxorubicin was performed as in Example 7, except that it was at 36° C. for 12 hours. Intraliposomal pH was determined using HPTS fluorescence method (Straubinger, et al., 1990) prior to drug loading, and indicated essentially no inside-outside pH gradient (less than 0.2 pH units), compared with the gradient of several pH units typical for ammonium ion gradient liposomes (Haran, et al., 1993). The following results were obtained (nd, not determined)

[4] = Doxorubicin loading into liposomes with entrapped sodium salts of sulfuric, phosphoric, polyvinylsulfuric or polyphosphoric acid, without or with nigericin (Examples 4, 5); type: physicochemical
Protocol: Liposomes were prepared from egg phosphatidylcholine using the procedure identical to Example 1 but instead of polyacrylic acid, the inner buffers contained one of the following salts: sodium sulfate, sodium phosphate, sodium polyvinylsulfate (Fluka, Ronkonkoma, N.Y.; average chain length n=13), or sodium polyphosphate (Sigma Chemical Co.; average chain length n=13-18), at a concentration of 100 mill-equivalents of sodium/L. The liposomes were incubated with doxorubicin (300 nmol/μmol of phospholipid) overnight, free drug was removed from the liposomes, and the liposomes were assayed as described in Example 1. Drug incorporation into the liposomes was as follows (in nmol/μmol of phospholipid): sodium sulfate, 82.1±0.95; sodium phosphate, 76.8±2.3; sodium polyvinylsulfate, 109.8±0.25; sodium polyphosphate, 85.2±2.2; "blank" liposomes, containing 100 mM sodium chloride, 1.03±0.06.
Liposomes were prepared and loading with doxorubicin as in Example 4, except that prior to drug loading, nigericin was added to the liposomes at a concentration of 5 μmol/L. The following drug incorporation (nmol/μmol of phospholipid) was obtained in the liposomes containing: sodium sulfate, 96.5±1.9; sodium phosphate, 271.9±3.8; sodium polyvinylsulfate, 133.7±1.9; sodium polyphosphate, 169.7±2.7.

[5] = Doxorubicin loading into liposomes containing ammonium polyacrylate or sulfate in absence of ammonium ion gradient (Example 7); type: physicochemical; details: for Doxorubicin absorbed by liposomes: no ammonium ion gradient; for Doxorubicin incorporation into liposomes: outer Cl-
Protocol: Liposomes with entrapped ammonium sulfate or ammonium polyacrylate were prepared from the lipid mixture of hydrogenated soybean phosphatidylcholine (Avanti PolarLipids, Ala., U.S.A.), cholesterol (Calbiochem, USA), and poly(ethylene glycol) (Mol. weight 2,000) derivative of distearoyl phosphatidyl ethanolamine (PEG-DSPE) (Sygena, Switzerland), at the molar ratio 60:40:6, by lipid film hydration, repetitive freezing-thawing at 60° C. (6 times) and extrusion through two stacked polycarbonate track-etched membranes with the pore size 100 nm at 60° C. (12 times). The bulk aqueous phase of the liposomes was exchanged by gel-filtration for the outer buffer, 0.2 M ammonium chloride, adjusted (when necessary) to pH 7.3 and buffered with 10 mM sodium hydroxyethylpiperazino-ethane sulfonate (HEPES). The inner (entrapped) solution had ammonium ion concentration of 200 milli-eqivalent/L, i.e. the same as the outer buffer (no ammonium ion gradient), and the anion composition and pH as indicated below. Polyacrylic acid with mol. weight of 2,000 (Aldrich Chemical Co.) was used. Doxorubicin was added to the liposomes at 2 mg for each 6-8 micro-mol of phospholipid, and incubated with shaking at 60° C., i.e. above the transition temperature of the lipid bilayer, for various times as specified below. […] Doxorubicin-loaded liposomes were separated from the free drug by gel-chromatography on Sephadex G-75, eluted with the outer buffer. Liposomal doxorubicin was assayed by spectrophotometry at 485 nm, phospholipid was quantitated by molybdate method after acid digestion of the liposomes.

[6] = inner buffer anion L(+)-tartrate
[7] = inner buffer anion methanesulfonate
[8] = inner buffer anion polyacrylate

COc1cccc2c1C(=O)c1c(O)c3c(c(O)c1C2=O)C[C@@](O)(C(=O)CO)C[C@@H]3O[C@H]1C[C@H](N)[C@H](O)[C@H](C)O1 [doxorubicin]
correlation coefficient R, extent of drug loading vs. drug solubility in Inner Buffer ([1]; Examples 8 and 9): 0.9043
Doxorubicin precipitation ([1]; inner buffer anion DTPA): 58.1%
Doxorubicin precipitation [1, 6]: 25.0%
Doxorubicin precipitation ([1]; inner buffer anion chloride): 1.1%
Doxorubicin precipitation ([1]; inner buffer anion citrate): 81.4%
Doxorubicin precipitation [1, 7]: 0%
Doxorubicin precipitation ([1]; inner buffer anion nitrate): 0%
Doxorubicin precipitation ([1]; inner buffer anion phosphate): 73.7%
Doxorubicin precipitation [1, 8]: 98.4%
Doxorubicin precipitation ([1]; inner buffer anion sulfate): 47.5%
Doxorubicin release by nigericin [2]: quickly releases
Doxorubicin incorporation into liposomes ([3]; inner buffer anion DTPA): 40.8 mg of drug/mmol of liposome ph
Doxorubicin incorporation into liposomes [3, 6]: 27.5 mg of drug/mmol of liposome ph
Doxorubicin incorporation into liposomes ([3]; inner buffer anion chloride): 16.8 mg of drug/mmol of liposome ph
Doxorubicin incorporation into liposomes ([3]; inner buffer anion citrate): 97.9 mg of drug/mmol of liposome ph
Doxorubicin incorporation into liposomes [3, 7]: 17.1 mg of drug/mmol of liposome ph
Doxorubicin incorporation into liposomes ([3]; inner buffer anion nitrate): 12.4 mg of drug/mmol of liposome ph
Doxorubicin incorporation into liposomes ([3]; inner buffer anion phosphate): 68.1 mg of drug/mmol of liposome ph
Doxorubicin incorporation into liposomes [3, 8]: 142.7 mg of drug/mmol of liposome ph
Doxorubicin incorporation into liposomes ([3]; inner buffer anion sulfate): 33.5 mg of drug/mmol of liposome ph
Drug incorporation into the liposomes ([4]; "blank" liposomes containing 100 mM sodium chloride, doxorubicin 300 nmol/μmol): 1.03±0.06 nmol/μmol of phospholipid
Drug incorporation into the liposomes ([4]; entrapped sodium phosphate, doxorubicin 300 nmol/μmol, overnight, no nigericin): 76.8±2.3 nmol/μmol of phospholipid
Drug incorporation into the liposomes ([4]; entrapped sodium phosphate, nigericin 5 μmol/L): 271.9±3.8 nmol/μmol of phospholipid
Drug incorporation into the liposomes ([4]; entrapped sodium polyphosphate, doxorubicin 300 nmol/μmol, overnight, no nigericin): 85.2±2.2 nmol/μmol of phospholipid
Drug incorporation into the liposomes ([4]; entrapped sodium polyphosphate, nigericin 5 μmol/L): 169.7±2.7 nmol/μmol of phospholipid
Drug incorporation into the liposomes ([4]; entrapped sodium polyvinylsulfate, doxorubicin 300 nmol/μmol, overnight, no nigericin): 109.8±0.25 nmol/μmol of phospholipid
Drug incorporation into the liposomes ([4]; entrapped sodium polyvinylsulfate, nigericin 5 μmol/L): 133.7±1.9 nmol/μmol of phospholipid
Drug incorporation into the liposomes ([4]; entrapped sodium sulfate, doxorubicin 300 nmol/μmol, overnight, no nigericin): 82.1±0.95 nmol/μmol of phospholipid
Drug incorporation into the liposomes ([4]; entrapped sodium sulfate, nigericin 5 μmol/L): 96.5±1.9 nmol/μmol of phospholipid
Effect of nigericin on drug loading ([4]; permeabilization of liposome membrane by nigericin 5 μmol/L): did not decrease drug loading
Doxorubicin absorbed by liposomes ([5]; ammonium polyacrylate liposomes): considerable amounts
Doxorubicin absorbed by liposomes ([5]; ammonium sulfate liposomes, 60° C.): very small amounts
Doxorubicin precipitate formation ([5]; in the presence of polyacrylate anion, 60° C.): visibly precipitated
Doxorubicin precipitate formation ([5]; in the presence of sulfate anion, 60° C.): did not form a detectable precipitate
Doxorubicin incorporation into liposomes ([5]; inner SO4^2-, pH 7.3, 1 hour, 60° C.): 6.1 ± 0.8 mg of drug/mmol of liposome ph
Doxorubicin incorporation into liposomes ([5]; inner SO4^2-, pH 7.3, 16 hours, 60° C.): 5.1 ± 0.2 mg of drug/mmol of liposome ph
Doxorubicin incorporation into liposomes ([5]; inner polyacrylate, pH 5.2, 1 hour, 60° C.): 59.7 ± 2.5 mg of drug/mmol of liposome ph
Doxorubicin incorporation into liposomes ([5]; inner polyacrylate, pH 7.3, 1 hour, 60° C.): 91.0 ± 2.8 mg of drug/mmol of liposome ph

— patent publication US6110491A, “Compound-loaded liposomes and methods for their preparation” (Hermes Biosciences, Inc., priority 1997, dated 2000)
